# Reference: patent publication US20110014178A1 (priority 2002, published 2011)
# Experiments:
# [1] = test system: C. perfringens; format: in vivo, broiler chicks; details: 50 g/t in feed, challenged
# [2] = molecular target: phospholipase C (alpha toxin produced by Clostridium perfringens) (Clostridium perfringens, UniProt P0C216); details: cited from earlier work
# [3] = test system: Clostridium perfringens; format: cell-based; details: FIC plates
Compound,Feed Consum. [1],Feed Conv. [1],NE Mort. [1],Wt. Gain D 5 to D 14 [1] [kg],Wt. Gain D 5 to D 27 [1] [kg],Wt. Gain D 14 to D 27 [1] [kg],"Lesion Score (0 to 3) Day 22 ([1]; 0 normal, 3 most severe)","Lesion Score (0 to 3) Day 27 ([1]; 0 normal, 3 most severe)",effect on enzymatic activity of phospholipase C [2],"lysozyme effective alone ([3]; 100 times dilution of overnight culture, no nisin)",lysozyme required to achieve a bactericidal effect ([3]; in combination with nisin 3 ppm) [ppm]
bacitracin methylene disalicylate [BMD],14.000,1.659,2,0.252,0.946,0.694,0.0,0.3,–,–,–
lysozyme,–,–,–,–,–,–,–,–,direct inhibitory effect,approximately 120 ppm,8
O=C(O)CN(CCN(CC(=O)O)CC(=O)O)CC(=O)O [EDTA],–,–,–,–,–,–,–,–,direct inhibitory effect,–,–
